Results from US11242353B2, “Heterocyclic LSF inhibitors and their uses” (TRUSTEES OF BOSTON UNIVERSITY, priority 2020, dated 2022).
Read-outs that look alike come from different tables or passages of the source.

System: Huh7 cells
Assay: growth inhibition of Huh7 cells
Type: cell-based
Details: single trials per figure (FIGS. 1A-4)
Method: FIGS. 1A-4 show results for growth inhibition of Huh7 cells upon contact with compounds (FQI-37Q), (FQI-34Q), (FQI-1Q), (JAK 196-22), and (JAK 196.23). Compounds (FQI-37Q) and (FQI-34Q) show high activities (GI50 about 0.5 μM and lower).

[1] = Homo sapiens, Huh-7, Huh7 cells, read-out: GI50 (growth inhibition of Huh7 cells)

GI50 [1] [µM] | SMILES | further results
3.6 | CCOc1ccccc1N1CC(=O)Nc2cc3c(cc21)OCO3 [FQI-1Q, 8-(2-ethoxyphenyl)-7,8-dihydro-[1,3]dioxolo[4,5-g]quinoxalin-6(5H)-one] | 
 | CCOc1cc(N(C)C)ccc1N1CC(=O)Nc2cc3c(cc21)OCO3 [FQI-34Q, 8-(4-(dimethylamino)-2-ethoxyphenyl)-7,8-dihydro-[1,3]dioxolo[4,5-g]quinoxalin-6(5H)-one] | GI50 (Homo sapiens, Huh-7, read-out: GI50 (growth inhibition of Huh7 cells), Huh7 cells): ≤ 0.5 µM
 | CCOc1cc(N(C)C)ccc1N1CC(=O)Nc2cc3c(cc21)OCCO3 [FQI-37Q, 9-(4-(dimethylamino)-2-ethoxyphenyl)-2,3,8,9-tetrahydro-[1,4]dioxino[2,3-g]quinoxalin-7(6H)-one] | GI50 (read-out: GI50 (growth inhibition of Huh7 cells), Huh7 cells): 0.501 µM
> 10 | COc1cc([N+](=O)[O-])ccc1-n1c(=O)cnc2cc3c(cc21)OCO3 [JAK 196-22] | 
